Assay results as given in the NIST ThermoML archive (doi:10.1021/je300143a).
± gives the expanded uncertainty stated by the source.

Tests used:
[1] = Crystal; DTA
[2] = Molar enthalpy of transition or fusion; settings: Crystal; DSC

| SMILES | Normal melting temperature [1] [°C] | Molar enthalpy of transition or fusion [2] [kJ/mol] |
| --- | --- | --- |
| CC(=O)c1ccc(NC2=NCCC3(CCCCC3)S2)cc1 | 163.5 ± 0.5 | 32.5 ± 1.2 |
| CC(C)c1ccc(NC2=NCCC3(CCCCC3)S2)cc1 | 139.6 ± 0.5 | 29.2 ± 1.2 |
| Cc1ccc(NC2=NCCC3(CCCCC3)S2)cc1Cl | 149.2 ± 0.5 | 33.2 ± 1.2 |
| FC(F)(F)c1ccc(NC2=NCCC3(CCCCC3)S2)cc1 | 149.7 ± 0.5 | 32.9 ± 1.2 |
| O=C(NC1=NCCC2(CCCCC2)S1)c1ccccc1 [N-(1-thia-3-azaspiro[5.5]undec-2-en-2-yl)benzamide] | 130.2 ± 0.5 | 27.9 ± 1.2 |
| Brc1ccc(NC2=NCCC3(CCCCC3)S2)cc1 [N-(4-bromophenyl)-1-thia-3-azaspiro[5.5]undec-2-en-2-amine] | 175.2 ± 0.5 | 44.3 ± 1.3 |
| Clc1ccc(NC2=NCCC3(CCCCC3)S2)cc1 [N-(4-chlorophenyl)-1-thia-3-azaspiro[5.5]undec-2-en-2-amine] | 162.6 ± 0.5 | 27.9 ± 1.2 |
| CCc1ccc(NC2=NCCC3(CCCCC3)S2)cc1 [N-(4-ethylphenyl)-1-thia-3-azaspiro[5.5]undec-2-en-2-amine] | 139.4 ± 0.5 | 42.8 ± 1.3 |
| COc1ccc(NC2=NCCC3(CCCCC3)S2)cc1 [N-(4-methoxyphenyl)-1-thia-3-azaspiro[5.5]undec-2-en-2-amine] | 115.4 ± 0.5 | 29.3 ± 1.2 |
| Cc1ccc(NC2=NCCC3(CCCCC3)S2)cc1 [N-(4-methylphenyl)-1-thia-3-azaspiro[5.5]undec-2-en-2-amine] | 108.2 ± 0.5 | 41.9 ± 1.3 |
| c1ccc(NC2=NCCC3(CCCCC3)S2)cc1 [N-phenyl-1-thia-3-azaspiro[5.5]undec-2-en-2-amine] | 113.4 ± 0.5 | 21.6 ± 1.1 |
